Measured values from patent publication US20170000133A1, “BENZOXABOROLE FUNGICIDES” (SYNGENTA PARTICIPATIONS AG, priority 2013, published 2017).

Assays:
[1] = tested on: Fusarium culmorum; assay: microbe, parasite or virus in culture; assay type: cell-based; details: read-out: disease control (inhibition of growth determined visually)
[2] = tested on: Mycosphaerella arachidis (Cercospora arachidicola); assay: Mycosphaerella arachidis (Cercospora arachidicola) / liquid culture (early leaf spot); assay type: cell-based; details: PDB potato dextrose broth, 24° C., 4-5 days after application, read-out: disease control (inhibition of growth determined photometrically)
Description: (§1) 12. Mycosphaerella arachidis (Cercospora arachidicola)/Liquid Culture (Early Leaf Spot): Conidia of the fungus from cryogenic storage were directly mixed into nutrient broth (PDB potato dextrose broth). After placing a DMSO solution of test compound into a 96-well microtiter plate at an application rate of 200 ppm, the nutrient broth containing the fungal spores was added. The test plates were incubated at 24° C. and the inhibition of growth was determined photometrically 4-5 days after application.

[3] = tested on: Pythium ultimum; assay: Pythium ultimum / liquid culture (seedling damping off); assay type: cell-based; details: Globisporangium ultimum; 200 ppm; potato dextrose broth, 24° C., 2-3 days after application; read-out: disease control (inhibition of growth determined photometrically)
[4] = tested on: Monographella nivalis (Microdochium nivale); assay: Monographella nivalis (Microdochium nivale) / liquid culture (foot rot cereals); assay type: cell-based; details: PDB potato dextrose broth, 24° C., 4-5 days after application, read-out: disease control (inhibition of growth determined photometrically)
[5] = tested on: Plasmopara viticola; assay: whole plant or invertebrate; assay type: in vivo; details: foliar, read-out: disease control
[6] = tested on: Mycosphaerella graminicola (Septoria tritici); assay: Mycosphaerella graminicola (Septoria tritici) / liquid culture (Septoria blotch); assay type: cell-based; details: Zymoseptoria tritici, PDB potato dextrose broth, 24° C., 4-5 days after application, read-out: disease control (inhibition of growth determined photometrically)
In short: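 Growth inhibition was read photometrically 4-5 days after application, following incubation at 24° C of fungal conidia in potato dextrose broth over test compound (200 ppm, from DMSO solution) in microtiter plates.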

[7] = tested on: Gaeumannomyces graminis; assay: Gaeumannomyces graminis / liquid culture (take-all of cereals); assay type: cell-based; details: PDB potato dextrose broth, 24° C., 4-5 days after application, read-out: disease control (inhibition of growth determined photometrically)
In short: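 Growth inhibition measured photometrically 4–5 days post-application, following incubation at 24 °C. Test compound, applied from DMSO at 200 ppm, mixed with fungal mycelial fragments in potato dextrose broth.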

[8] = tested on: Glomerella lagenarium (Colletotrichum lagenarium); assay: Glomerella lagenarium (Colletotrichum lagenarium) / liquid culture (anthracnose); assay type: cell-based; details: Colletotrichum orbiculare, PDB potato dextrose broth, 24° C., 3-4 days after application, read-out: disease control (inhibition of growth measured photometrically)
Description: as §1, with “11. Glomerella lagenarium (Colletotrichum lagenarium)/Liquid” for “12. Mycosphaerella arachidis (Cercospora arachidicola)/Liquid”, “(Anthracnose):” for “(Early Leaf Spot):”, “measured” for “determined”, “3-4” for “4-5”

[9] = tested on: Thanatephorus cucumeris (Rhizoctonia solani); assay: Thanatephorus cucumeris (Rhizoctonia solani) / liquid culture (foot rot, damping-off); assay type: cell-based; details: PDB potato dextrose broth, 24° C., 3-4 days after application, read-out: disease control (inhibition of growth determined photometrically)
In short: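 Photometric growth-inhibition readout taken 3-4 days after application, with cultures incubated at 24 °C. Test compound was applied at 200 ppm from DMSO solution to R. solani mycelial fragments in PDB.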

COc1ccc(OCCOC(=O)c2ccc3c(c2)B(O)OC3)cc1 [Compound 344]
≥ 80%: inhibition at 200 ppm [1] | inhibition at 200 ppm [2] | inhibition at 200 ppm [3] | inhibition at 200 ppm [4] | pest or weed control at 200 ppm [5] | inhibition at 200 ppm [6] | inhibition at 200 ppm [7] | inhibition at 200 ppm [8] | inhibition at 200 ppm [9]

O=C(OCCc1c(Cl)cccc1Cl)c1cc2c(cc1F)COB2O [Compound 433]
≥ 80%: inhibition at 200 ppm [1] | inhibition at 200 ppm [4] | pest or weed control at 200 ppm [5] | inhibition at 200 ppm [7] | inhibition at 200 ppm [9]

O=C(OCCc1c(Cl)cccc1Cl)c1cc2c(cc1Cl)COB2O [Compound 240]
≥ 80%: inhibition at 200 ppm [2] | inhibition at 200 ppm [3] | inhibition at 200 ppm [4] | pest or weed control at 200 ppm [5] | inhibition at 200 ppm [6] | inhibition at 200 ppm [7] | inhibition at 200 ppm [8] | inhibition at 200 ppm [9]

C=CCCOC(=O)c1cc2c(cc1Cl)COB2O [Compound 203]
≥ 80%: inhibition at 200 ppm [1] | inhibition at 200 ppm [2] | inhibition at 200 ppm [3] | inhibition at 200 ppm [4] | inhibition at 200 ppm [6] | inhibition at 200 ppm [7] | inhibition at 200 ppm [8] | inhibition at 200 ppm [9]

O=C(OCC1CCC1)c1cc2c(cc1F)COB2O [Compound 413]
≥ 80%: inhibition at 200 ppm [1] | inhibition at 200 ppm [3] | inhibition at 200 ppm [4] | inhibition at 200 ppm [6] | inhibition at 200 ppm [7] | inhibition at 200 ppm [9]

O=C(OCCOc1ccc(Cl)cc1)c1cc2c(cc1Cl)COB2O [Compound 226]
≥ 80%: inhibition at 200 ppm [1] | inhibition at 200 ppm [2] | inhibition at 200 ppm [3] | inhibition at 200 ppm [4] | pest or weed control at 200 ppm [5] | inhibition at 200 ppm [6] | inhibition at 200 ppm [7] | inhibition at 200 ppm [8] | inhibition at 200 ppm [9]

O=C(OCC(Cl)(Cl)Cl)c1cc2c(cc1F)COB2O [Compound 382]
≥ 80%: inhibition at 200 ppm [2] | inhibition at 200 ppm [3] | inhibition at 200 ppm [4] | pest or weed control at 200 ppm [5] | inhibition at 200 ppm [6] | inhibition at 200 ppm [7] | inhibition at 200 ppm [8] | inhibition at 200 ppm [9]

O=C(OCC1CC1)c1cc2c(cc1F)COB2O [Compound 388]
≥ 80%: inhibition at 200 ppm [2] | inhibition at 200 ppm [3] | inhibition at 200 ppm [4] | pest or weed control at 200 ppm [5] | inhibition at 200 ppm [6] | inhibition at 200 ppm [7] | inhibition at 200 ppm [8] | inhibition at 200 ppm [9]

O=C(OCc1ccco1)c1ccc2c(c1)B(O)OC2 [Compound 336]
≥ 80%: inhibition at 200 ppm [1] | inhibition at 200 ppm [2] | inhibition at 200 ppm [3] | inhibition at 200 ppm [4] | pest or weed control at 200 ppm [5] | inhibition at 200 ppm [6] | inhibition at 200 ppm [7] | inhibition at 200 ppm [8] | inhibition at 200 ppm [9]

C[Si](C)(C)C#CCOC(=O)c1cc2c(cc1F)COB2O [Compound 430]
≥ 80%: inhibition at 200 ppm [1] | inhibition at 200 ppm [2] | inhibition at 200 ppm [3] | pest or weed control at 200 ppm [5] | inhibition at 200 ppm [6] | inhibition at 200 ppm [7] | inhibition at 200 ppm [9]

C=CCCOC(=O)c1ccc2c(c1)B(O)OC2 [Compound 329]
≥ 80%: inhibition at 200 ppm [1] | inhibition at 200 ppm [2] | inhibition at 200 ppm [3] | inhibition at 200 ppm [4] | pest or weed control at 200 ppm [5] | inhibition at 200 ppm [6] | inhibition at 200 ppm [7] | inhibition at 200 ppm [9]

O=C(OCC1CC1)c1ccc2c(c1)B(O)OC2 [Compound 328]
≥ 80%: inhibition at 200 ppm [2] | inhibition at 200 ppm [3] | inhibition at 200 ppm [4] | pest or weed control at 200 ppm [5] | inhibition at 200 ppm [6] | inhibition at 200 ppm [7] | inhibition at 200 ppm [8] | inhibition at 200 ppm [9]

O=C(OC1CCC1)c1ccc2c(c1)B(O)OC2 [Compound 332]
≥ 80%: inhibition at 200 ppm [1] | inhibition at 200 ppm [2] | inhibition at 200 ppm [3] | inhibition at 200 ppm [4] | pest or weed control at 200 ppm [5] | inhibition at 200 ppm [6] | inhibition at 200 ppm [9]

O=C(OC1CSC1)c1ccc2c(c1)B(O)OC2 [Compound 362]
≥ 80%: inhibition at 200 ppm [1] | inhibition at 200 ppm [2] | inhibition at 200 ppm [3] | inhibition at 200 ppm [4] | inhibition at 200 ppm [6] | inhibition at 200 ppm [7] | inhibition at 200 ppm [9]

O=C(OC1CCC1)c1cc2c(cc1Cl)COB2O [Compound 205]
≥ 80%: inhibition at 200 ppm [1] | inhibition at 200 ppm [2] | inhibition at 200 ppm [3] | inhibition at 200 ppm [4] | inhibition at 200 ppm [6] | inhibition at 200 ppm [7] | inhibition at 200 ppm [8] | inhibition at 200 ppm [9]

O=C(OCc1ccsc1)c1cc2c(cc1Cl)COB2O [Compound 439]
≥ 80%: inhibition at 200 ppm [2] | inhibition at 200 ppm [3] | inhibition at 200 ppm [4] | pest or weed control at 200 ppm [5] | inhibition at 200 ppm [6] | inhibition at 200 ppm [7] | inhibition at 200 ppm [8] | inhibition at 200 ppm [9]

O=C(OCC(Cl)(Cl)Cl)c1cc2c(cc1Cl)COB2O [Compound 197]
≥ 80%: inhibition at 200 ppm [1] | inhibition at 200 ppm [2] | inhibition at 200 ppm [3] | inhibition at 200 ppm [4] | inhibition at 200 ppm [6] | inhibition at 200 ppm [8] | inhibition at 200 ppm [9]

C=CCOC(=O)c1ccc2c(c1)B(O)OC2 [Compound 340]
≥ 80%: inhibition at 200 ppm [2] | inhibition at 200 ppm [3] | inhibition at 200 ppm [4] | pest or weed control at 200 ppm [5] | inhibition at 200 ppm [6] | inhibition at 200 ppm [7] | inhibition at 200 ppm [8] | inhibition at 200 ppm [9]

C=CCOC(=O)c1cc2c(cc1F)COB2O [Compound 403]
≥ 80%: inhibition at 200 ppm [2] | inhibition at 200 ppm [3] | inhibition at 200 ppm [4] | pest or weed control at 200 ppm [5] | inhibition at 200 ppm [6] | inhibition at 200 ppm [7] | inhibition at 200 ppm [8] | inhibition at 200 ppm [9]

C#CCOC(=O)c1ccc2c(c1)B(O)OC2 [Compound 320]
≥ 80%: inhibition at 200 ppm [2] | inhibition at 200 ppm [3] | inhibition at 200 ppm [4] | pest or weed control at 200 ppm [5] | inhibition at 200 ppm [6] | inhibition at 200 ppm [7] | inhibition at 200 ppm [8] | inhibition at 200 ppm [9]

C#CCCOC(=O)c1cc2c(cc1Cl)COB2O [Compound 229]
≥ 80%: inhibition at 200 ppm [1] | inhibition at 200 ppm [2] | inhibition at 200 ppm [3] | inhibition at 200 ppm [4] | inhibition at 200 ppm [6] | inhibition at 200 ppm [7] | inhibition at 200 ppm [8] | inhibition at 200 ppm [9]

O=C(OCc1cccc2ccccc12)c1cc2c(cc1F)COB2O [Compound 394]
≥ 80%: inhibition at 200 ppm [2] | inhibition at 200 ppm [3] | inhibition at 200 ppm [4] | pest or weed control at 200 ppm [5] | inhibition at 200 ppm [6] | inhibition at 200 ppm [7] | inhibition at 200 ppm [8] | inhibition at 200 ppm [9]

O=C(OCC(F)(F)Cl)c1ccc2c(c1)B(O)OC2 [Compound 314]
≥ 80%: inhibition at 200 ppm [2] | inhibition at 200 ppm [3] | inhibition at 200 ppm [4] | pest or weed control at 200 ppm [5] | inhibition at 200 ppm [6] | inhibition at 200 ppm [7] | inhibition at 200 ppm [8] | inhibition at 200 ppm [9]

C#CCOC(=O)c1cc2c(cc1F)COB2O [Compound 381]
≥ 80%: inhibition at 200 ppm [1] | inhibition at 200 ppm [3] | inhibition at 200 ppm [4] | pest or weed control at 200 ppm [5] | inhibition at 200 ppm [6] | inhibition at 200 ppm [7] | inhibition at 200 ppm [8] | inhibition at 200 ppm [9]

O=C(OCc1ccc(C(F)(F)F)nc1)c1ccc2c(c1)B(O)OC2 [Compound 343]
≥ 80%: inhibition at 200 ppm [2] | inhibition at 200 ppm [3] | inhibition at 200 ppm [4] | pest or weed control at 200 ppm [5] | inhibition at 200 ppm [6] | inhibition at 200 ppm [7] | inhibition at 200 ppm [8] | inhibition at 200 ppm [9]
